How the values were obtained:
Assay type in all cases: in vivo, mouse
[1] = system: 5XFAD AD-Tg mice; assay: Radial arm water maze (RAWM) in 5XFAD AD-Tg mice; settings: weekly-GA over 4 weeks
Experimental: The radial-arm water maze (RAWM) was used to test spatial learning and memory, as was previously described in detail (Alamed et al, 2006). Briefly, six stainless steel inserts were placed in the tank, forming six swim arms radiating from an open central area. The escape platform was located at the end of one arm (the goal arm), 1.5 cm below the water surface, in a pool 1.1 m in diameter. The water temperature was kept between 21-22° C. Water was made opaque with milk powder. Within the testing room, only distal visual shape and object cues were available to the mice to aid in location of the submerged platform. The goal arm location remained constant for a given mouse. On day 1, mice were trained for 15 trials (spaced over 3 h), with trials alternating between a visible and hidden platform, and the last 4 trails with hidden platform only. On day 2, mice were trained for 15 trials with the hidden platform. Entry into an incorrect arm, or failure to select an arm within 15 sec, was scored as an error. Spatial learning and memory were measured by counting the number of arm entry errors or the escape latency of the mice on each trial. Training data were analyzed as the mean errors or escape latency, for training blocks of three consecutive trials.

[2] = system: 5XFAD AD-Tg mice; assay: Flow cytometry of splenocytes in 5XFAD AD-Tg mice; settings: weekly-GA, end of 1st week (two GA injections)
Experimental: Mice were transcardially perfused with PBS, and tissues were treated as previously described (Baruch et al, 2013). Brains were dissected and the different brain regions were removed under a dissecting microscope (Stemi DV4; Zeiss) in PBS, and tissues were dissociated using the gentleMACS™ dissociator (Miltenyi Biotec). Choroid plexus tissues were isolated from the lateral, third and fourth ventricles of the brain, incubated at 37° C. for 45 min in PBS (with Ca^2+/Mg^2+) containing 400 U/ml collagenase type IV (Worthington Biochemical Corporation), and then manually homogenized by pipetting. Spleens were mashed with the plunger of a syringe and treated with ACK (ammonium chloride potassium) lysing buffer to remove erythrocytes. In all cases, samples were stained according to the manufacturers' protocols. All samples were filtered through a 70 μm nylon mesh, and blocked with anti-Fc CD16/32 (1:100; BD Biosciences). For intracellular staining of IFN-γ, the cells were incubated with […] (10 ng/ml; Sigma-Aldrich) and ionomycin (250 ng/ml; Sigma-Aldrich) for 6 h, and Brefeldin-A (10 μg/ml; Sigma-Aldrich) was added for the last 4 h. Intracellular labeling of cytokines was done with BD Cytofix/Cytoperm™ Plus fixation/permeabilization kit (cat. no. 555028). […] Cells were analyzed on an LSRII cytometer (BD Biosciences) using FlowJo software. […]

[3] = system: 5XFAD AD-Tg mice; assay: Morris water maze (MWM) in 5XFAD AD-Tg mice; settings: weekly-GA vs vehicle (PBS), AD-Tg mice at 6 m
Experimental: Mice were given three trials per day, for 4 consecutive days, to learn to find a hidden platform located 1.5 cm below the water surface in a pool (1.1 m in diameter). The water temperature was kept between 21-22° C. Water was made opaque with milk powder. Within the testing room, only distal visual shape and object cues were available to the mice to aid in location of the submerged platform. The escape latency, i.e., the time required to find and climb onto the platform, was recorded for up to 60 s. Each mouse was allowed to remain on the platform for 15 s and was then removed from the maze to its home cage. […] The inter-trial interval for each mouse was 10 min. On day 5, the platform was removed, and mice were given a single trial lasting 60 s without available escape. On days 6 and 7, the platform was placed in the quadrant opposite the original training quadrant, and the mouse was retrained for three sessions each day. Data were recorded using the EthoVision V7.1 automated tracking system (Noldus Information Technology). Statistical analysis was performed using analysis of variance (ANOVA) and the Bonferroni post-hoc test. All MWM testing was performed between 10 a.m. and 5 p.m. during the lights-off phase.

Substance: Glatiramer acetate [GA]
- time the improved cognitive performance lasted after the treatment ([1]; 5XFAD AD-Tg mice): up to 2 months
- cognitive performance (MWM, RAWM) ([1]; MWM 1 week, RAWM 1 and 2 months after last injection): improved cognitive performance
- splenocyte Foxp3+ Treg levels [2]: reduced
- spatial learning/memory performance in acquisition, probe and reversal phases of the MWM [3]: better spatial learning/memory performance

From patent US11492405B2, “Reducing systemic regulatory t cell levels or activity for treatment of disease and injury of the CNS” (Yeda Research and Development Co. Ltd, priority 2014, dated 2022)
